{"source": "patent US9924716B2", "about": "“Molecules having pesticidal utility, and intermediates, compositions, and processes, related thereto” (Dow AgroSciences LLC, priority 2016, dated 2018)", "type_in_all_cases": "in vivo", "key": {"[1]": {"test_system": "Beet Armyworm (Spodoptera exigua, LAPHEG) second instar larvae", "assay": "Bioassay on Beet Armyworm (BAW), 128-well diet tray assay", "details": "Beet Armyworm, Table ABC Biological Results, read-out: BAW rating", "in_short": "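Second-instar larvae, one to five per well, on artificial diet surface-treated with 50 μg/cm^2 compound in acetone-water, dried; eight wells per compound. Held 25 °C, 14:10 light-dark, five to seven days; percent mortality averaged over wells.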"}, "[2]": {"test_system": "Cabbage Looper (Trichoplusia ni, TRIPNI) second instar larvae", "assay": "Bioassay on Cabbage Looper (CL), 128-well diet tray assay", "details": "Cabbage Looper, Table ABC Biological Results, read-out: CL rating", "in_short": "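Second instar larvae (1–5 per well) on artificial diet surface-treated with 50 μg/cm² compound in 90:10 acetone-water, eight wells per compound. Held 5–7 days at 25 °C, 14:10 light-dark; percent mortality averaged across wells.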"}, "[3]": {"test_system": "Green Peach Aphid (Myzus persicae, MYZUPE)", "assay": "Bioassay on Green Peach Aphid (GPA), foliar spray on cabbage seedlings", "details": "Table ABC Biological Results", "description": "Certain molecules disclosed in this document were tested against GPA using procedures described in the following example. In the reporting of the results, the “GPA & YFM Rating Table” was used (See Table Section). Cabbage seedlings grown in 3-inch pots, with 2-3 small (3-5 cm) true leaves, were used as test substrate. The seedlings were infested with 20-50 GPA (wingless adult and nymph stages) one day prior to chemical application. Four pots with individual seedlings were used for each treatment. Test molecules (2 mg) were dissolved in 2 mL of acetone/methanol (1:1) solvent, forming stock solutions of 1000 ppm test molecule. The stock solutions were diluted 5× with 0.025% Tween 20 in water to obtain the solution at 200 ppm test molecule. A hand-held aspirator-type sprayer was used for spraying a solution to both sides of […] leaves until runoff. Reference plants (solvent check) were sprayed with the diluent only containing 20% by volume of acetone/methanol (1:1) solvent. Treated plants were held in a holding room for three days at approximately 25° C. and ambient relative humidity (RH) prior to grading. […] Percent Control was measured by using Abbott's correction formula (W. S. Abbott, “A Method of Computing the Effectiveness of an Insecticide” J. Econ. Entomol. 18 (1925), pp. 265-267) as follows. […]"}, "[4]": {"test_system": "Yellow Fever Mosquito (Aedes aegypti, AEDSAE) larvae", "assay": "Bioassay on Yellow Fever Mosquito (YFM), 96-well plate larval assay", "details": "Table ABC Biological Results", "description": "Certain molecules disclosed in this document were tested against YFM using procedures described in the following paragraph. In the reporting of the results, the “GPA & YFM Rating Table” was used (See Table Section).\nMaster plates containing 400 μg of a molecule dissolved in 100 μL of dimethyl sulfoxide (DMSO) (equivalent to a 4000 ppm solution) are used. A master plate of assembled molecules contains 15 μL per well. To this plate, 135 μL of a 90:10 water:acetone mixture is added to each well. A robot (Biomek® NXP Laboratory Automation Workstation) is programmed to dispense 15 μL aspirations from the master plate into an empty 96-well shallow plate (“daughter” plate). There are 6 reps (“daughter” plates) created per master. The created daughter plates are then immediately infested with YFM larvae.\nThe day before plates are to be treated, mosquito eggs are placed in Millipore water containing liver powder to begin hatching (4 g. into 400 mL). After the daughter plates are created using the robot, they are infested with 220 μL of the liver powder/larval mosquito mixture (about 1 day-old larvae). After plates are infested with mosquito larvae, a non-evaporative lid is used to cover the plate to reduce drying. Plates are held at room temperature for 3 days prior to grading. After 3 days, each well is observed and scored based on mortality. The results are indicated in the table entitled “Table ABC: Biological Results” (See Table Section)."}}, "data": [{"smiles": "C[C@H](NC(=O)CCC(F)(F)F)NC(=O)c1ccc(/C(F)=C/C(c2cc(Cl)c(F)c(Cl)c2)C(F)(F)F)cc1C(F)(F)F", "note": "(stereo partly drawn) [F17, 4-((Z)-3-(3,5-Dichloro-4-fluorophenyl)-1,4,4,4-tetrafluorobut-1-en-1-yl)-N—((R)-1-(4,4,4-trifluorobutanamido)ethyl)-2-(trifluoromethyl)benzamide]", "values": [{"measurement": "pest or weed control at 50 µg/cm2", "setting": "[1]", "value": "50 to 100", "unit": "%"}, {"measurement": "pest or weed control at 50 µg/cm2", "setting": "[2]", "value": "50 to 100", "unit": "%"}, {"measurement": "GPA rating", "setting": "[3]", "value": "B (More than 0-Less than 80)"}, {"measurement": "YFM rating", "setting": "[4]", "value": "A (80-100)"}]}, {"smiles": "C[C@H](NC(=O)CC(F)(F)F)NC(=O)c1ccc(/C(F)=C/C(c2cc(Cl)c(Br)c(Cl)c2)C(F)(F)F)cc1C(F)(F)F", "note": "(stereo partly drawn) [F31, 4-((Z)-3-(4-Bromo-3,5-dichlorophenyl)-1,4,4,4-tetrafluorobut-1-en-1-yl)-2-(trifluoromethyl)-N—((R)-1-(3,3,3-trifluoropropanamido)ethyl)benzamide]", "values": [{"measurement": "pest or weed control at 50 µg/cm2", "setting": "[1]", "value": "50 to 100", "unit": "%"}, {"measurement": "pest or weed control at 50 µg/cm2", "setting": "[2]", "value": "50 to 100", "unit": "%"}, {"measurement": "GPA rating", "setting": "[3]", "value": "B (More than 0-Less than 80)"}, {"measurement": "YFM rating", "setting": "[4]", "value": "A (80-100)"}]}]}
